These results are taken from article PMC3597028 (Disease Models & Mechanisms, 2012).

What is called pIC50 is the negative decadic logarithm of the IC50, by convention in mol/L.

pIC50: −log10 of the molar value.

This test addresses PAD2 (peptidylarginine deiminase 2) (Homo sapiens, UniProt Q9Y2J8). It is filed as biochemical.

Sequence of PAD2 (peptidylarginine deiminase 2) (Q9Y2J8 whole entry): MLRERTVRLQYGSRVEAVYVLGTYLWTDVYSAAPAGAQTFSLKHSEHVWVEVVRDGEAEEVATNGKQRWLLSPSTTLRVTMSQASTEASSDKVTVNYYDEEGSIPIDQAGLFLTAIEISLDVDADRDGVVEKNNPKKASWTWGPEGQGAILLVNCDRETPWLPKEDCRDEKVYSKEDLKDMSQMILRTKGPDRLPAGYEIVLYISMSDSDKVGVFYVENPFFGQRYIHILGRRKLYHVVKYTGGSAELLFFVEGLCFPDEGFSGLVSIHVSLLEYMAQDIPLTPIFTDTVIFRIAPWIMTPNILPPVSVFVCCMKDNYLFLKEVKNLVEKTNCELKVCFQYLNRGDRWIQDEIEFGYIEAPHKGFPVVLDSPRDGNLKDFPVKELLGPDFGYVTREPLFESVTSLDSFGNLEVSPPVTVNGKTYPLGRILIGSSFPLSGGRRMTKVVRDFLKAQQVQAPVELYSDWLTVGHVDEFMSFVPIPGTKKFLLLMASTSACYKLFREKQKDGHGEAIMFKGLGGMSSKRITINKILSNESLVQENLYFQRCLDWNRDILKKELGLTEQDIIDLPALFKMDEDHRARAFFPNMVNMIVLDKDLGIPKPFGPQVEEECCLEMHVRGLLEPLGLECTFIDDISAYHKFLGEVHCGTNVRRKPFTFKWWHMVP

The molecule `N=C(N)CCl` [2CA, 2-chloroacetamidine] had a pIC50 of 1.84.
